The test system of one test is BxPC3, PancCa. Nature of the test: In vitro growth inhibition (CellTiter-Glo, 96 h), BxPC3. Type of test: cell-based. The conditions noted are these: cOKT9 ADCs, average DAR 8, 96 h.
For the next test, the system named is HL60/RV, MDR + AML. Put plainly: In vitro growth inhibition (CellTiter-Glo, 96 h), HL60/RV. Type of test: cell-based. To be noted: cOKT9 ADCs, average DAR 8, 96 h.
A further test relates to HL60, AML. Put plainly: In vitro growth inhibition (CellTiter-Glo, 96 h), HL60. Type of test: cell-based. To be noted: cOKT9 ADCs, average DAR 8, 96 h.
For the next test, the system named is L540cy, HL. Nature of the test: In vitro growth inhibition (CellTiter-Glo, 96 h), L540cy. The format is cell-based. To be noted: cOKT9 ADCs, average DAR 8, 96 h.
For test [1], the system named is L540cy, 786-O, BxPC3, HL60, HL60/RV. To be noted: cOKT9 ADCs DAR 8; result in words.
Another test has as its system 786-O, MDR + RCC. Nature of the test: In vitro growth inhibition (CellTiter-Glo, 96 h), 786-O. Type of test: cell-based. To be noted: cOKT9 ADCs, average DAR 8, 96 h.
Test [2] relates to CD30-expressing lymphoma cell line panel. Type of test: cell-based. The conditions noted are these: cAC10 ADC DAR 4. The method, then: Cell culture of cell lines as listed in Table 2-4 in log-phase growth were seeded in 96-well plates and grown for 24 h in cell culture media containing 150 μL RPMI 1640 supplemented with 20% FBS (see Mol. Cancer Ther., 2016, 15(5), 938-945 and Mol. Cancer Ther., 2018, 17(8), 1752-1760). Serial dilutions of free drugs or antibody-drug conjugates (final concentration between 0.004 nM and 1 μM) in cell culture media were prepared at 4× working concentrations; 50 μL of each dilution was added to the 96-well plates. Following addition of the drug or ADC, the cells were incubated with test articles (free drugs or ADCs) for 4 d at 37° C. After 96 h, growth inhibition was assessed by CellTiter-Glo® (Promega, Madison, WI) and luminescence was measured on a plate reader (brand, model).
Anti-CD30 ADCs comprising cAC10 antibody conjugated to drug-linkers 24, 32, 29, 18, 14, and 48 with an average DAR of 4 were prepared for evaluation on a CD30-expressing lymphoma cell line panel. […] Anti-CD30 conjugates bearing the PNU linkers 24, 32, 29, 18, and 14 were active on L540cy, DEL, and Karpas299 lymphoma cell lines, and conjugate 48 was active on L540cy and DEL cell lines, with IC50s ranging from 0.2-4 ng/mL.

Molecules are shown by their SMILES.

For `COc1cccc2c1C(=O)c1c(O)c3c(c(O)c1C2=O)C[C@@](O)(C(=O)NCCNC(=O)CNC(=O)CNC(=O)CNC(=O)CCN1C(=O)C=CC1=O)C[C@@H]3O[C@H]1C[C@H](N2CCO[C@H](OC)C2)[C@H](O)[C@H](C)O1` [Compound 33, (2S,4S)—N-(15-(2,5-dioxo-2,5-dihydro-1H-pyrrol-1-yl)-4,7,10,13-tetraoxo-3,6,9,12-tetraazapentadecyl)-2,5,12-trihydroxy-4-(((2R,4S,5S,6S)-5-hydroxy-4-((S)-2-methoxymorpholino)-6-methyltetrahydro-2H-pyran-2-yl)oxy)-7-methoxy-6,11-dioxo-1,2,3,4,6,11-hexahydrotetracene-2-carboxamide], the “IC50 (ng/mL) BxPC3, PancCa” value in the test with BxPC3, PancCa was “D (IC50≥1000 ng/mL)”. In addition, the “IC50 (ng/mL) HL60/RV, MDR + AML” value in the test on HL60/RV, MDR + AML is “D (IC50≥1000 ng/mL)”. Moreover, the “IC50 (ng/mL) HL60, AML” value with HL60, AML is “D (IC50≥1000 ng/mL)”. Also, the “IC50 (ng/mL) L540cy, HL” value in the test on L540cy, HL is “D (IC50≥1000 ng/mL)”. Also, the “activity of cOKT9 conjugates across the panel of cancer cell lines” value in test [1] was “inactive”. The “IC50 (ng/mL) 786-O, MDR + RCC” value with 786-O, MDR + RCC was “D (IC50≥1000 ng/mL)”. Also, in test [2], the “IC50 values of anti-CD30 conjugate, highest dose tested” value was > 20,000 ng/ml.
